These results are taken from publication PMC8351079, “Molecular encapsulation of andrographolide in 2-hydroxypropyl-β-cyclodextrin cavity: synthesis, characterization, pharmacokinetic and in vitro antiviral activity analysis against SARS-CoV-2” (Heliyon, 2021).

For data set [1] the following is noted: room temperature; cited from earlier work.
Data set [2] in a line: Dissolution test (USP apparatus, SIF pH 7.2). In kind it is physicochemical. To be noted: SIF pH 7.2, after 2 h. The protocol:
Dissolution testing was carried out using USP dissolution rate test apparatus as per the standard protocol with HPLC method as specified earlier. In brief, 100 mg of AND or 100 mg of AND equivalent in AND-2-HyP-β-CYD complex powder was suspended in simulated intestinal fluid (SIF, pH 7.2, 900 mL) and paddle was rotated at 50 rpm. The temperature of SIF was kept at 37 ± 2 °C. At specified time intervals, 2 mL of the SIF was taken and replaced with identical volume.

A short description of data set [3]: Solubility analysis by saturated solution method. In kind it is physicochemical. To be noted: aqueous phase, 37 °C. The protocol:
The solubility of solid complex was measured by saturated solution method. […] Subsequently, suspension was filtered and 0.1 mL was diluted to 1 mL with water. […] All measurements were noticed in triplicate (n = 3).

The conditions of data set [4]: cited from earlier work.
Data set [5] can be described thus: Pharmacokinetic analysis in rats (AND in plasma by HPLC). To be noted: male, Sprague Dawley, in vivo, rat.
For data set [6] the following is noted: in vivo, cited from earlier work.
The nature of data set [7]: Pharmacokinetic analysis in rats (AND in plasma by HPLC). On the set-up: species or system male Sprague Dawley rats. To be noted: in vivo, rat. The protocol:
The pharmacokinetic analysis was carried out in male Sprague Dawley rats. The animals were kept in light controlled environment (Photoperiod~12 h, 23 ± 1 °C, 50 ± 5% humidity) with access to food and water ad libitum. […] In brief, 120 male rats were indiscriminately divided into 30 groups of 4 animals each similar to blood collection time points. AND and AND equivalent to 100 mg.kg^−1 in AND-2-HyP-β-CYD complex was administered orally by gavages.
The AND in plasma was monitored up to 48 h post oral administration of AND and AND-2-HyP-β-CYD complex. Blood samples were collected in both groups at 0.083, 0.25, 0.5, 1, 2, 4, 8, 16, 24 and 48 h. About 750 μl of blood sample was isolated from the retro-orbital vein into microcentrifuge tubes containing 100 μl of 10 % w/v sodium citrate as anticoagulant. The plasma was extracted from the blood by centrifugation at 5000 rpm for 20 min at 4 °C and stored at -40 °C until analyzed.
To extract the AND from plasma samples, plasma was typically mixed with methanol (1: 3 ratio) and vortexed for 20 min. Post mixing, the homogenate was centrifuged for 20 min at 5000 rpm to extract the proteins. The supernatant was filtered through 0.22 μm membrane filter and 10 μl was injected as specified earlier in to the HPLC system.
Plasma concentration data were analyzed and computed for one-compartmental pharmacokinetic parameters. The following pharmacokinetic parameters were assessed: ke (h), t1/2 (h), Cmax (μg.mL^−1), AUClast (h.μg.mL^−1), AUCinf (h.μg.mL^−1), MRT (h), CLTotal (L.h^−1), Vd (L) and F %.

A further data set deals with SARS-CoV-2. As to the kind of experiment: microbe, parasite or virus in culture. In kind it is cell-based. To be noted: for % Inhibition of virus replication post infection: concentration not given; for IC50: Severe acute respiratory syndrome coronavirus 2, Vero C1008, Vero E6 cells infected with SARS-CoV-2, MOI 0.01, qRT-PCR after 48 h.
Data set [8] can be described thus: Cytotoxicity testing, MTT cell proliferation assay. In kind it is cell-based. To be noted: African green monkey, Vero E6 cells, concentration not given, read-out: % Cell viability against Vero E6 cells. The method, then:
The cytotoxic effect of AND-2-HyP-β-CYD complex on the property of Vero E6 cells was evaluated by using MTT dye [3-(4,5-dimethylthiazol-2-yl)-2,5-diphenyltetrazolium bromide] assay technique. In brief, 1 × 10^4 Vero E6 cells were incubated for 24 h in serum DMEM (Dulbecco's Modified Eagle Medium) of about 200-μl in a 96 wells microtiter plate. Subsequently, Vero E6 cells were incubated for 24 h as well as 72 h with 10 μg.mL^−1 or 100-μg.mL^−1 of AND-2-HyP-β-CYD complex. On the other hand, remedisivir was taken as standard in identical concentration range. MTT dye stock solution (0.5 mg.mL^−1) was incorporated to each well of the microtiter plate post completion of incubation time. The plate was further incubated in 5% CO2 incubator at 37 °C for 4 h. The formazon crystals liberated after cell lysis, were suspended in 100 μL of DMSO (Dimethyl sulfoxide) in the last step. The absorbance was captured using reference wavelength of 630 nm in a ELISA reader at 570 nm.
A general note: Tetrazolium dyes change colour on reduction, which living cells bring about.

The mark [9] stands for this setting: male, Sprague Dawley, oral, 100 mg/kg (AND equivalent).

Molecules are shown by their SMILES. Converted amounts (≈) assume the structure as drawn. Read-outs that look alike come from different tables or passages of the source.

For the molecule `CC(O)COC[C@H]1O[C@@H]2O[C@H]3[C@H](O)[C@@H](O)[C@@H](O[C@H]4[C@H](O)[C@@H](O)[C@@H](O[C@H]5[C@H](O)[C@@H](O)[C@@H](O[C@H]6[C@H](O)[C@@H](O)[C@@H](O[C@H]7[C@H](O)[C@@H](O)[C@@H](O[C@H]8[C@H](O)[C@@H](O)[C@@H](O[C@H]1[C@H](O)[C@H]2O)O[C@@H]8COCC(C)O)O[C@@H]7COCC(C)O)O[C@@H]6COCC(C)O)O[C@@H]5COCC(C)O)O[C@@H]4COCC(C)O)O[C@@H]3COCC(C)O` (stereo partly drawn) [2-HyP-β-CYD, 2-Hydroxypropyl-β-cyclodextrin], the Aqueous solubility in data set [1] was greater than 500 mg/mL.
As to `C=C1CC[C@@H]2[C@](C)(CO)[C@H](O)CC[C@@]2(C)[C@@H]1C/C=C1/C(=O)OC[C@H]1O` [AND, Andrographolide], the “% release” value in [2] is given as 27.89 ± 1.32%. For the same molecule, the solubility at 24 h in [3] was determined as 6.39 ± 0.47 µg/mL (≈ 18.2 µM). Also, the “log P” value in data set [4] was 2.632 ± 0.135. Besides, in data set [5] (iv, 10 mg/kg), the area under the curve AUC(0-inf) is 891 ± 180 µg·h/mL, the AUC(0-t) turned out to be 801 ± 181 µg·h/mL, the MRT stood at 1.11 ± 0.04 h and the Vd amounted to 0.013 ± 0.003 L. The molecule also had a half-life in [5] (iv, 10 mg/kg) of 51.5 ± 1.86 min. Besides, the clearance in [5] (iv, i.v., 10 mg/kg, read-out: CLTotal (converted)) was 0.183 mL/min. The Tmax in [5] (oral, 100 mg.kg^−1) turned out to be 2 h. In addition, the “Half-life (t1/2)” value in [6] (iv) was 1.86 ± 0.21 h. In addition, in [6] (po), the Absolute oral bioavailability was 9.27 ± 1.69%, the Cmax is reported as 0.73 ± 0.17 μM.L^−1, the “Half-life (t1/2)” value is 3.30 ± 0.35 h and the Tmax is 25.2 ± 8.4 min. Also, the bioavailability in data set [7] (male, Sprague Dawley, 100 mg.kg^−1, oral 100 mg/kg vs i.v. 10 mg/kg, read-out: F (%), bioavailability) is 15.9 ± 3.84%. Also, in data set [7] (setting [9]), the AUC(0-inf) was found to be 1850 ± 306 µg·h/mL, the AUC(0-t) stood at 1220 ± 143 µg·h/mL, the Cmax amounted to 240 ± 75.4 µg/mL and the half-life was 355 ± 12.6 min. For the same molecule, the MRT in data set [7] (po, 100 mg/kg) was 1.49 ± 0.0.085 h.
Regarding `CCC(CC)COC(=O)[C@H](C)N[P@](=O)(OC[C@H]1O[C@@](C#N)(c2ccc3c(N)ncnn23)[C@H](O)[C@@H]1O)Oc1ccccc1` [Remdesivir], the “% Inhibition of virus replication post infection” value was determined as 72.26% in the data set on SARS-CoV-2 (24 h, E gene); 77.61% with SARS-CoV-2 (24 h, N gene); 99.64% with SARS-CoV-2 (48 h, E gene); 99.76% with SARS-CoV-2 (48 h, N gene). Also, the figures for the half-maximal inhibitory concentration (IC50) in the data set with SARS-CoV-2 (read-out: IC50 (E gene)) and in the data set with SARS-CoV-2 (read-out: IC50 (N gene)) were 0.09 µg/mL (≈ 0.149 µM) and 0.06 µg/mL (≈ 0.0996 µM), respectively. Also, the viability at 24 h in data set [8] (24 h) was 99.2%. Besides, in data set [8] (48 h), the viability at 48 h is 94.4%.

By Aqueous solubility is commonly meant how much of the substance goes into solution per volume. One may read the solubility as how much of the substance goes into solution per volume. Read a low solubility as little dissolved substance. One may read the log P as the decadic logarithm of the partition coefficient of the neutral form, usually between octanol and water. As a reminder, the AUC(0-inf) is total exposure, with the tail of the curve extrapolated. Broadly, the AUC(0-t) is exposure summed from dosing to a finite time, without extrapolation to infinity. In general, MRT refers to a mean duration of stay, worked out from the concentration-time curve. Broadly, the Vd is the apparent volume that relates the amount in the body to the concentration in plasma or blood. High values mean extensive tissue distribution, low ones confinement near the circulation. As a reminder, the half-life is the time needed for the level to fall by half in the phase considered. As a reminder, the Tmax is the time from dosing to the highest level. As a reminder, the bioavailability is the share of a dose that reaches the circulation, judged against a reference dose that is usually intravenous. In general, IC50 refers to the midpoint of a concentration-inhibition curve. One may read the viability as a per cent measure of how many cells are alive, often set against a control.
